Literature values in patent US20020177585A1, “Uses of targeted oxidative therapeutic formulation in arteriosclerosis” (priority 2001, published 2002).

How the values were obtained:
[1] = system: peroxide-sensitive E. coli; details: infused into the blood of infected rabbits
E. coli = details: increasing concentration of peroxide ex-vivo

Structure (SMILES): OO [hydrogen peroxide, Hydrogen peroxide]
- bactericidal effect [1]: no bactericidal effect
- direct bactericidal activity (E. coli): no evidence of direct bactericidal activity
